Measurements as given in patent US11814367B2, “Inhibitors of glycogen synthase 1 (GYS1) and methods of use thereof” (Maze Therapeutics, Inc., priority 2021, dated 2023).

Columns and labels:
[1] = target: hGYS2 enzyme (recombinant hGYS2/GN1 protein) (Homo sapiens (Human), UniProt P54840); assay: GYS2 coupled enzyme assay (PK/LDH); type: biochemical; details: geometric mean of at least 2 assay runs on separate days, read-out: Avg_IC50
Outline: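 IC50 came from Hill fits of duplicate percent inhibition, based on control-normalized slopes of 340 nm NADH decline read each minute for 10 min. The reaction held recombinant hGYS2/GN1 (200 nM) with glycogen, UDP-glucose, G6P and PEP, plus PK/LDH coupling at pH 7.5 and 2.5% DMSO.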

[2] = test system: hGYS1 enzyme / glycogen synthesis in HeLa cells; assay: GYS1 cell based assay (glycogen synthesis, Glucose-glo); parameters: species or system human; details: Homo sapiens, HeLa, 24 h, 24 h incubation, 20 mM glucose, geometric mean of at least 2 runs
Outline: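 HeLa cells starved 24 h in medium containing only 1× Glutamax were plated onto compound in medium with 20 mM glucose (1% DMSO final) for 24 h, 37 °C, 5% CO2. Acid lysates were Tris-quenched, glucoamylase-digested (pH 5.3, 1 h, 37 °C) and read by Glucose-glo luminescence. IC50 came from Hill fits, as geometric mean of ≥2 runs.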

[3] = target: hGYS1 enzyme (recombinant hGYS1/GN1 protein) (Homo sapiens (Human), UniProt P13807); assay: GYS1 coupled enzyme assay (PK/LDH); type: biochemical; details: hGYS1/GN1 50 nM, UDP-Glucose 0.8 mM, G6P 1 mM; geometric mean of at least 2 runs
hGYS1 enzyme (recombinant hGYS1/GN1 protein), sequence (P13807 whole entry): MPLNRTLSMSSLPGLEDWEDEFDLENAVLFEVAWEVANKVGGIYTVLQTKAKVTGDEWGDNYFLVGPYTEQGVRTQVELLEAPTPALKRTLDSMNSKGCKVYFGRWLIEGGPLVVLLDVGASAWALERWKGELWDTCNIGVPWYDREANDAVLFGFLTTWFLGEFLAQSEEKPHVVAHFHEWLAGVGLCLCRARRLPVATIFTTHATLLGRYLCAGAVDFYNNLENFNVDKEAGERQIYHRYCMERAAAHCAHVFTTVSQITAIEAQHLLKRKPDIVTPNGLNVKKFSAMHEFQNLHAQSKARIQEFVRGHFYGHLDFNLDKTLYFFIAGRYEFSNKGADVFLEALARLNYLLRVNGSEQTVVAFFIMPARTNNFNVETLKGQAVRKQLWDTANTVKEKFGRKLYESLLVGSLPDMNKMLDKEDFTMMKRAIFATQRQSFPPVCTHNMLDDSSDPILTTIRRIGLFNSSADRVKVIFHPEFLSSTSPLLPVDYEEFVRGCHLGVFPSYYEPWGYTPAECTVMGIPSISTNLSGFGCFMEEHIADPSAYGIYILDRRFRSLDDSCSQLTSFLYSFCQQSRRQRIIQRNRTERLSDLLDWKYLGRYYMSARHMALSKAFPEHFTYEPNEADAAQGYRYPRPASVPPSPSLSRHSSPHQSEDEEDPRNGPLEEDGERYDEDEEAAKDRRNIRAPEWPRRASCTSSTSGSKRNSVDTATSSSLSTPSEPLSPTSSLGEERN
hGYS1 enzyme (recombinant hGYS1/GN1 protein), sequence (P46976 whole entry partner): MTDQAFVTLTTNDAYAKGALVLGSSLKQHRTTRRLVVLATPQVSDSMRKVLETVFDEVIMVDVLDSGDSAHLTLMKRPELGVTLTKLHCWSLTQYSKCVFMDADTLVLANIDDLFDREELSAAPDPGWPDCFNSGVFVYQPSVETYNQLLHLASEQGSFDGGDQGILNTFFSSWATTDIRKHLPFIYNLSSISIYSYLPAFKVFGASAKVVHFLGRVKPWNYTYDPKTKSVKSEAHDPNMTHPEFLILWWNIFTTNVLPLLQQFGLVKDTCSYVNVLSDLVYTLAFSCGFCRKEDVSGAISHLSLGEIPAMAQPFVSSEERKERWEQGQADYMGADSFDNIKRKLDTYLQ

hGYS2 enzyme (recombinant hGYS2/GN1 protein), sequence (P54840 whole entry): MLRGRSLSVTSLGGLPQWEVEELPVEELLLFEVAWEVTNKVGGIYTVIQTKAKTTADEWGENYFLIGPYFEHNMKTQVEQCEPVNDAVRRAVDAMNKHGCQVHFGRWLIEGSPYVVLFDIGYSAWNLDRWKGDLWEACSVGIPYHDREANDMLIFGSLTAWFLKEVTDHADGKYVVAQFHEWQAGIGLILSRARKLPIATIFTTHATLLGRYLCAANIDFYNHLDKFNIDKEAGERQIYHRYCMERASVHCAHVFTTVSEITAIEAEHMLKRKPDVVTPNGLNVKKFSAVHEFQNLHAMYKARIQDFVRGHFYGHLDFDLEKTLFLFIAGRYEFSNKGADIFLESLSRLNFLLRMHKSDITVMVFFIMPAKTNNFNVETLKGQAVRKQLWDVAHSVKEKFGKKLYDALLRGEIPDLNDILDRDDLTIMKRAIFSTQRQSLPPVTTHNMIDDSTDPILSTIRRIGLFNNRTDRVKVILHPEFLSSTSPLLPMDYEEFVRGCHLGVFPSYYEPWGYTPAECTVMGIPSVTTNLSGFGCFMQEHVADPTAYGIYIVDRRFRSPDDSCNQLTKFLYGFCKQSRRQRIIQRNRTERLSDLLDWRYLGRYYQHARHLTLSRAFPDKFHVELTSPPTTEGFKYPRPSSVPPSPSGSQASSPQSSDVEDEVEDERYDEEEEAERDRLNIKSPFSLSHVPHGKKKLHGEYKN
hGYS2 enzyme (recombinant hGYS2/GN1 protein), sequence (P46976 whole entry partner): as the sequence (P46976 whole entry partner) above

| Structure (SMILES) | IC50 [1] [µM] | IC50 [2] [µM] | IC50 [3] [µM] |
| --- | --- | --- | --- |
| O=C(N[C@@H](c1ccccc1)c1ccc(C2CC2)c(F)n1)[C@@H]1C[C@@H](F)CN1C(=O)Cc1ccc(=O)[nH]c1 [Compound 734, (2S,4R)-N-[(S)-(5-cyclopropyl-6-fluoropyridin-2-yl)(phenyl)methyl]-4-fluoro-1-[2-(6-oxo-1,6-dihydropyridin-3-yl)acetyl]pyrrolidine-2-carboxamide] | > 100 | 1.73 | 0.026 |
| Cc1cn(CC(=O)N2C[C@H](F)C[C@H]2C(=O)N[C@@H](c2ccccc2)c2ccc(C(C)C)c(F)c2)c(=O)n(C)c1=O [Compound 353, (2S,4R)-1-[2-(3,5-dimethyl-2,4-dioxo-1,2,3,4-tetrahydropyrimidin-1-yl)acetyl]-4-fluoro-N-[(S)-[3-fluoro-4-(propan-2-yl)phenyl](phenyl)methyl] pyrrolidine-2-carboxamide] | > 100 | 0.09 | 0.007 |
| O=C(N[C@@H](c1ccccc1)c1ccc(C2CC2)c(F)n1)[C@@H]1C[C@@H](F)CN1C(=O)Cn1cnnc1 [Compound 296, (2S,4R)-N-[(S)-(5-cyclopropyl-6-fluoropyridin-2-yl)(phenyl)methyl]-4-fluoro-1-[2-(4H-1,2,4-triazol-4-yl)acetyl]pyrrolidine-2-carboxamide] | > 100 | 4.44 | 0.087 |
| CC(C)c1ccc([C@@H](NC(=O)[C@@H]2C[C@@H](F)CN2C(=O)Cc2n[nH]c(=O)n2C)c2ccccc2)nc1F [Compound 398, (2S,4R)-4-fluoro-N-[(S)-[6-fluoro-5-(propan-2-yl)pyridin-2-yl](phenyl)methyl]-1-[2-(4-methyl-5-oxo-4,5-dihydro-1H-1,2,4-triazol-3-yl)acetyl] pyrrolidine-2-carboxamide] | > 100 | 0.28 | 0.009 |
| O=C(N[C@@H](c1ccccc1)c1ccc(C2CC2)c(F)n1)[C@@H]1C[C@@H](F)CN1C(=O)Cn1cc(C(F)(F)F)cn1 [Compound 728, (2S,4R)-N-[(S)-(5-cyclopropyl-6-fluoropyridin-2-yl)(phenyl)methyl]-4-fluoro-1-{2-[4-(trifluoromethyl)-1H-pyrazol-1-yl]acetyl}pyrrolidine-2-carboxamide] | > 100 | 0.79 | 0.036 |
| COCCN1CCN(C(=O)OCC(=O)N2C[C@H](F)C[C@H]2C(=O)N[C@@H](c2ccccc2)c2ccc(C3CC3)c(F)c2)CC1 [Compound 448, 2-[(2S,4R)-2-{[(S)-(4-cyclopropyl-3-fluorophenyl)(phenyl)methyl]carbamoyl}-4-fluoropyrrolidin-1-yl]-2-oxoethyl 4-(2-methoxyethyl)piperazine-1-carboxylate] | > 100 | 1.35 | 0.071 |
| CC(C)c1ccc([C@@H](NC(=O)[C@@H]2C[C@@H](F)CN2C(=O)Cn2nnc(C(F)(F)F)n2)c2ccccc2)nc1 [Compound 255, (2S,4R)-4-fluoro-N-[(S)-phenyl[5-(propan-2-yl)pyridin-2-yl]methyl]-1-{2-[5-(trifluoromethyl)-2H-1,2,3,4-tetrazol-2-yl]acetyl}pyrrolidine-2-carboxamide] | > 100 | 1.01 | 0.088 |
| CC(C)c1ccc([C@@H](NC(=O)[C@@H]2CC[C@H](C)N2C(=O)Cc2cnn[nH]2)c2ccccc2)cc1F [Compound 323, (2S,5S)-N-[(S)-[3-fluoro-4-(propan-2-yl)phenyl](phenyl)methyl]-5-methyl-1-[2-(1H-1,2,3-triazol-5-yl)acetyl]pyrrolidine-2-carboxamide] | > 100 | 0.9 | 0.074 |
| CC[C@@H]1CN(C(C)=O)C[C@@H]1C(=O)N1C[C@H](F)C[C@H]1C(=O)N[C@@H](c1ccccc1)c1ccc(C(C)C)cc1 [Compound 179, (2S,4R)-1-[(3R,4S)-1-acetyl-4-ethylpyrrolidine-3-carbonyl]-4-fluoro-N-[(S)-phenyl[4-(propan-2-yl)phenyl]methyl]pyrrolidine-2-carboxamide] | > 100 | 0.4 | 0.031 |
| CC(C)c1ccc([C@@H](NC(=O)[C@@H]2C[C@@H](F)CN2C(=O)Cc2ccc(=O)[nH]c2)c2ccccc2)nc1F [Compound 791, (2S,4R)-4-fluoro-N-[(S)-[6-fluoro-5-(propan-2-yl)pyridin-2-yl](phenyl)methyl]-1-[2-(6-oxo-1,6-dihydropyridin-3-yl)acetyl]pyrrolidine-2-carboxamide] | > 100 | 0.39 | 0.007 |
| CC(C)c1ccc([C@@H](NC(=O)[C@@H]2C[C@@H](F)CN2C(=O)Cc2cnn[nH]2)c2ccccc2)cc1Cl [Compound 672, (2S,4R)-N-[(S)-[3-chloro-4-(propan-2-yl)phenyl](phenyl)methyl]-4-fluoro-1-[2-(1H-1,2,3-triazol-5-yl)acetyl]pyrrolidine-2-carboxamide] | > 100 | 1.22 | 0.082 |
| CC(C)c1ccc([C@@H](NC(=O)[C@@H]2C[C@@H](F)CN2C(=O)Cn2ncc(N(C)C)n2)c2ccccc2)nc1F [Compound 392, (2S,4R)-1-{2-[4-(dimethylamino)-2H-1,2,3-triazol-2-yl]acetyl}-4-fluoro-N-[(S)-[6-fluoro-5-(propan-2-yl)pyridin-2-yl](phenyl)methyl] pyrrolidine-2-carboxamide] | > 100 | 0.1 | 0.005 |
| CC(C)c1ccc([C@@H](NC(=O)[C@@H]2C[C@@H](F)CN2C(=O)Cc2cnn[nH]2)c2ccccc2)nc1F [Compound 385, (2S,4R)-1-(2-(1H-1,2,3-triazol-5-yl)acetyl)-4-fluoro-N—((S)-(6-fluoro-5-isopropylpyridin-2-yl)(phenyl)methyl)pyrrolidine-2-carboxamide] | > 100 | 0.39 | 0.017 |
| Cn1nc(CC(=O)N2C[C@H](F)C[C@H]2C(=O)N[C@@H](c2ccccc2)c2ccc(C3CC3)c(F)n2)oc1=O [Compound 306, (2S,4R)-N-[(S)-(5-cyclopropyl-6-fluoropyridin-2-yl)(phenyl)methyl]-4-fluoro-1-[2-(4-methyl-5-oxo-4,5-dihydro-1,3,4-oxadiazol-2-yl)acetyl]pyrrolidine-2-carboxamide] | > 100 | 0.81 | 0.078 |
| CC(C)c1ccc([C@@H](NC(=O)[C@@H]2C[C@@H](F)CN2C(=O)Cc2cccnn2)c2ccccc2)cc1F [Compound 343] | > 100 | 0.46 | 0.027 |
| CC(C)c1ccc([C@@H](NC(=O)[C@@H]2C[C@@H](F)CN2C(=O)Cn2cnc3ccccc32)c2ccccc2)cc1F [Compound 354, (2S,4R)-1-[2-(1H-1,3-benzodiazol-1-yl)acetyl]-4-fluoro-N-[(S)-[3-fluoro-4-(propan-2-yl)phenyl](phenyl)methyl] pyrrolidine-2-carboxamide] | > 100 | 0.06 | 0.005 |
| CN(C)c1cn(CC(=O)N2C[C@H](F)C[C@H]2C(=O)N[C@@H](c2ccccc2)c2ccc(C3CC3)c(F)n2)nn1 [Compound 299, (2S,4R)-N-[(S)-(5-cyclopropyl-6-fluoropyridin-2-yl)(phenyl)methyl]-1-{2-[4-(dimethylamino)-1H-1,2,3-triazol-1-yl]acetyl}-4-fluoropyrrolidine-2-carboxamide] | > 100 | 0.42 | 0.022 |
| CC(=O)N1C[C@H](F)C[C@H]1C(=O)NC(c1cccc(-c2ccn[nH]2)c1)c1ccc(C(C)C)c(F)n1 (single isomer, unassigned) [Compound 690, (2S,4R)-1-acetyl-4-fluoro-N-[(S) or (R)-[6-fluoro-5-(propan-2-yl)pyridin-2-yl][3-(1H-pyrazol-5-yl)phenyl]methyl] pyrrolidine-2-carboxamide] | > 100 | 0.9 | 0.047 |
| O=C(NC(c1ccccc1)c1ccc(C2CCC2)c(F)c1)[C@@H]1C[C@@H](F)CN1C(=O)Cn1cnnn1 (single isomer, unassigned) [Compound 675, (2S,4R)-N-[(S) or (R)-(4-cyclobutyl-3-fluorophenyl) (phenyl)methyl]-4-fluoro-1-[2-(1H-1,2,3,4-tetrazol-1-yl)acetyl]pyrrolidine-2-carboxamide] | > 100 | 1.13 | 0.101 |
| CC(C)c1ccc([C@@H](NC(=O)[C@@H]2C[C@@H](F)CN2C(=O)[C@H]2CNC(=O)O2)c2ccccc2)cc1F [Compound 382, (2S,4R)-4-fluoro-N-[(S)-[3-fluoro-4-(propan-2-yl)phenyl](phenyl)methyl]-1-[(5R)-2-oxo-1,3-oxazolidine-5-carbonyl]pyrrolidine-2-carboxamide] | > 100 | 0.52 | 0.034 |
| CC(C)c1ccc([C@@H](NC(=O)[C@@H]2C[C@@H](F)CN2C(=O)COC(=O)N2CCN(C(=O)OC(C)(C)C)CC2)c2ccccc2)cc1F [Compound 364, 1-tert-butyl 4-{2-[(2S,4R)-4-fluoro-2-{[(S)-[3-fluoro-4-(propan-2-yl)phenyl](phenyl)methyl]carbamoyl}pyrrolidin-1-yl]-2-oxoethyl} piperazine-1,4-dicarboxylate] | > 100 | 0.48 | 0.08 |
